Experimental data as given in patent US4048333A (priority 1971, dated 1977).

Columns and labels:
poliovirus 1 [1] = format: cell-based, poliovirus 1 (FL cells); conditions: maximum subtoxic concentration; for Results from one-step virus growth cycle experiments, PFU/ml: control 1.2×10^9; for Results from one-step virus growth cycle experiments, % of inhibition: virus yield vs control
echovirus 19 = assay: one-step virus growth cycle experiments, echovirus 19; format: cell-based, echovirus 19 (FL cells); conditions: maximum subtoxic concentration; for Results from the one-step virus growth cycle experiments, % of inhibition: virus yield vs control; for Results from the one-step virus growth cycle experiments, PFU/ml: control 2.6×10^9
[2] = system: coxsackievirus B1, B3, A6 and A7; assay: animal or person; format: in vivo, newborn mice; conditions: for ED50: Enterovirus B, B1, in Mus musculus, sc, read-out: ED50 dose; for antiviral activity on experimental Coxsackie infections (in words): mouse, in vivo; for retardation of the course of the infection: newborn mice, 3-10 LD50, subcutaneous once daily
[3] = acute toxicity for mice (LD50, Pershin method); conditions: mouse, in vivo; for LD50: mice, Pershin method
[4] = acute toxicity for rats (LD50, Pershin method); conditions: rat, in vivo, ip, intraperitoneal
rats = assay: subacute toxicity for rats; format: in vivo; conditions: intraperitoneal, 200 mg/kg daily for 30 days
pregnant female rats = assay: teratogenic effect in pregnant female rats; format: in vivo; conditions: intraperitoneal, daily doses of 100 mg/kg
poliovirus 1 [5] = format: cell-based, poliovirus 1 (FL cells); conditions: FL cells, 48 hour incubation
coxsackievirus B1 = format: cell-based, coxsackievirus B1 (FL cells)
FMD virus type C = format: cell-based, FMD virus type C (calf kidney primary cultures)
FMD = system: FMD; design: species or system newborn mice; conditions: mouse, in vivo
[6] = acute toxicity / selectivity index, species not stated; conditions: in vivo; species and route not given
FMD virus = system: FMD virus; design: species or system guinea pigs; conditions: guinea pig, in vivo

S=C(Nc1ccccc1)Nc1cnc2ccccc2c1 [Example 1]
Results from one-step virus growth cycle experiments, PFU/ml (poliovirus 1 [1]): 3.3×10^8 PFU/ml
Results from one-step virus growth cycle experiments, % of inhibition (poliovirus 1 [1]): 67.00%

S=C(Nc1ccccc1)Nc1cccc2cccnc12 [Example 2]
Results from one-step virus growth cycle experiments, PFU/ml (poliovirus 1 [1]): 5.2×10^8 PFU/ml
Results from one-step virus growth cycle experiments, % of inhibition (poliovirus 1 [1]): 48.00%

O=C(O)c1ccccc1NC(=S)Nc1ccccc1 [Example 3]
Results from one-step virus growth cycle experiments, PFU/ml (poliovirus 1 [1]): 5.9×10^7 PFU/ml
Results from one-step virus growth cycle experiments, % of inhibition (poliovirus 1 [1]): 95.09%

O=C(O)c1ccc(NC(=S)Nc2ccccc2)cc1O [Example 4, N-phenyl-N'-4-carboxy-5-hydroxyphenylthiourea]
Results from one-step virus growth cycle experiments, PFU/ml (poliovirus 1 [1]): < 1×10^6 PFU/ml
Results from one-step virus growth cycle experiments, % of inhibition (poliovirus 1 [1]): > 99.92%
Results from the one-step virus growth cycle experiments, % of inhibition (echovirus 19): above 99%
ED50 [2]: 43.3 mg/kg
antiviral activity on experimental Coxsackie infections (in words) [2]: marked antiviral activity
retardation of the course of the infection [2]: 2 to 3 days
LD50 ([3]; ip, intraperitoneal): 550 mg/kg
LD50 ([3]; sc, subcutaneous): > 1000 mg/kg
selectivity ratio ([3]; LD50 /ED50, read-out: selectivity index (LD50 /ED50)): ≥ 23
LD50 [4]: 734 mg/kg
subacute toxicity: changes in general state, behaviour, weight, blood pattern (rats): no changes in the general state and behaviour of the animals, or in their weight, the blood pattern, etc. were observed
teratogenic effect (pregnant female rats): No teratogenic effect

Oc1cccc(NC(=S)Nc2ccccc2)c1 [Example 5]
Results from the gradient plaque-inhibition test (poliovirus 1 [5]): + +
Results from one-step virus growth cycle experiments, PFU/ml (poliovirus 1 [1]): 7×10^6 PFU/ml
Results from one-step virus growth cycle experiments, % of inhibition (poliovirus 1 [1]): 99.42%

Oc1ccc(NC(=S)Nc2ccccc2)cc1 [Example 6]
Results from one-step virus growth cycle experiments, PFU/ml (poliovirus 1 [1]): 3.7×10^8 PFU/ml
Results from one-step virus growth cycle experiments, % of inhibition (poliovirus 1 [1]): 69.17%

O=[N+]([O-])c1ccc(O)c(NC(=S)Nc2ccccc2)c1 [Example 7]
Results from one-step virus growth cycle experiments, PFU/ml (poliovirus 1 [1]): 3.5×10^8 PFU/ml
Results from one-step virus growth cycle experiments, % of inhibition (poliovirus 1 [1]): 70.83%

O=C(O)CCCNC(=S)Nc1ccccc1 [Example 8, γ-phenylthioureidobutyric acid]
Results from one-step virus growth cycle experiments, PFU/ml (poliovirus 1 [1]): 1.5×10^7 PFU/ml
Results from the one-step virus growth cycle experiments, PFU/ml (coxsackievirus B1): ≤ 1×10^6 PFU/ml
Results from the one-step virus growth cycle experiments, PFU/ml (echovirus 19): 5× 10^6 PFU/ml
Results from the one-step virus growth cycle experiments, % of inhibition (echovirus 19; listed as 21): 99.81%
Results from the one-step virus growth cycle experiments, % of inhibition (echovirus 19; listed as μ-phenylthioureidobutyric acid): above 99%

Cc1cccc(NC(=S)Nc2ccccc2)c1 [Example 9]
Results from one-step virus growth cycle experiments, PFU/ml (poliovirus 1 [1]): 1.4×10^7 PFU/ml
Results from one-step virus growth cycle experiments, % of inhibition (poliovirus 1 [1]): 98.79%

CC(=O)c1ccc(NC(=S)Nc2ccccc2)cc1 [Example 10]
Results from one-step virus growth cycle experiments, PFU/ml (poliovirus 1 [1]): 4.6×10^7 PFU/ml
Results from one-step virus growth cycle experiments, % of inhibition (poliovirus 1 [1]): 96.17%

S=C(Nc1ccccc1)Nc1ccc(Cl)cc1NC(=S)Nc1ccccc1 [Example 11]
Results from one-step virus growth cycle experiments, PFU/ml (poliovirus 1 [1]): 4.3×10^8 PFU/ml
Results from one-step virus growth cycle experiments, % of inhibition (poliovirus 1 [1]): 57.00%

O=C(O)c1ccc(NC(=S)Nc2ccccc2)cc1O [Example 12]
Results from the one-step virus growth cycle experiments, PFU/ml (coxsackievirus B1): ≤ 1×10^6 PFU/ml

Oc1cccc(NC(=S)Nc2ccccc2)c1 [Example 13]
Results from the one-step virus growth cycle experiments, PFU/ml (coxsackievirus B1): ≤ 1×10^6 PFU/ml

Oc1ccc(NC(=S)Nc2ccccc2)cc1 [Example 14]
Results from the one-step virus growth cycle experiments, PFU/ml (coxsackievirus B1): < 1×10^6 PFU/ml

O=[N+]([O-])c1ccc(O)c(NC(=S)Nc2ccccc2)c1 [Example 15]
Results from the one-step virus growth cycle experiments, % of inhibition (coxsackievirus B1): 93.87%
Results from the one-step virus growth cycle experiments, PFU/ml (coxsackievirus B1): 4.6×10^7 PFU/ml

O=C(O)c1ccccc1NC(=S)Nc1ccccc1 [Example 17]
Results from the one-step virus growth cycle experiments, PFU/ml (echovirus 19): 5×10^6 PFU/ml
Results from the one-step virus growth cycle experiments, % of inhibition (echovirus 19): 99.81%

O=C(O)c1ccc(NC(=S)Nc2ccccc2)cc1O [Example 18]
Results from the one-step virus growth cycle experiments, PFU/ml (echovirus 19): < 1×10^6 PFU/ml
Results from the one-step virus growth cycle experiments, % of inhibition (echovirus 19): > 99.96%

Oc1cccc(NC(=S)Nc2ccccc2)c1 [Example 19]
Results from the one-step virus growth cycle experiments, PFU/ml (echovirus 19): 2×10^6 PFU/ml
Results from the one-step virus growth cycle experiments, % of inhibition (echovirus 19): 99.92%

O=[N+]([O-])c1ccc(O)c(NC(=S)Nc2ccccc2)c1 [Example 20, N-phenyl-N'-2-hydroxy-5-nitrophenylthiourea]
Results from the one-step virus growth cycle experiments, PFU/ml (echovirus 19): 5.9×10^7 PFU/ml
Results from the one-step virus growth cycle experiments, % of inhibition (echovirus 19): 97.73%

Oc1cccc(NC(=S)Nc2ccccc2)c1 [Example 22, N-phenyl-N'-3-hydroxyphenylthiourea]
Results from the one-step virus growth cycle experiments, % of inhibition (echovirus 19): above 99%
Results from the one-step virus growth cycle experiments, % of inhibition (FMD virus type C): 97.92%
Results from the one-step virus growth cycle experiments, PFU/ml (FMD virus type C): 1.5×10^5 PFU/ml
ED50 [2]: 86.6 mg/kg
antiviral activity on experimental Coxsackie infections (in words) [2]: marked antiviral activity
retardation of the course of the infection [2]: 2 to 3 days
animals in which development of FMD encephalitis is prevented (FMD): 33.3%
LD50 [6]: 1000 mg/kg

Oc1ccc(NC(=S)Nc2ccccc2)cc1 [Example 24, N-phenyl-N'-4-hydroxyphenylthiourea]
Results from the one-step virus growth cycle experiments, % of inhibition (FMD virus type C): 99.65%
Results from the one-step virus growth cycle experiments, PFU/ml (FMD virus type C): 2.5×10^4 PFU/ml
reduction of the number of ailing animals compared with the placebo group (FMD virus): reduces the number of ailing animals two to three and a half times

O=C(O)c1ccccc1NC(=S)Nc1ccccc1 [N-phenyl-N'-2-carboxyphenylthiourea]
Results from one-step virus growth cycle experiments, % of inhibition (poliovirus 1 [1]): 95-99%
Results from the one-step virus growth cycle experiments, % of inhibition (echovirus 19): above 99%

Cc1cccc(NC(=S)Nc2ccccc2)c1 [N-phenyl-N'-3-tolylthiourea]
Results from one-step virus growth cycle experiments, % of inhibition (poliovirus 1 [1]): 95-99%

CC(=O)c1ccc(NC(=S)Nc2ccccc2)cc1 [N-phenyl-N'-acetylphenylthiourea]
Results from one-step virus growth cycle experiments, % of inhibition (poliovirus 1 [1]): 95-99%
